One compound from article PMC8876215, “Anticancer Activity of the Choline Kinase Inhibitor PL48 Is Due to Selective Disruption of Choline Metabolism and Transport Systems in Cancer Cell Lines” (Pharmaceutics, 2022) can be followed below.

The assay deals with T1, ChoKα1 (choline kinase α1) (Homo sapiens, UniProt P35790).
T1 construct: gene CHKA; truncated form of ChoKα1 (Δ75–457), N-terminal 6x His-tag
As to the kind of experiment: radiometric assay: [methyl-14C]choline to phosphocholine by purified recombinant enzyme, TLC and scintillation counting. The assay is classed as biochemical.

T1 sequence (P35790 75-457): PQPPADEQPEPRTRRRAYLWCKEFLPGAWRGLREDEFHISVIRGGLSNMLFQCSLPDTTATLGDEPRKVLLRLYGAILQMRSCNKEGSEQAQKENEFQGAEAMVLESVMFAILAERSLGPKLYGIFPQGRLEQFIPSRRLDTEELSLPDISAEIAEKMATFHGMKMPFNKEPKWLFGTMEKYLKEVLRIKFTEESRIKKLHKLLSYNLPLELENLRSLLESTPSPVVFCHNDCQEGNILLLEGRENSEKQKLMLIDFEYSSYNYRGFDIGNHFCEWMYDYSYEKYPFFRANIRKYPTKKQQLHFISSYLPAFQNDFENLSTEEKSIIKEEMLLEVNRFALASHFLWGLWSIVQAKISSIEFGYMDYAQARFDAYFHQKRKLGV

Consider `Clc1ccc2c(N3CCCC3)cc[n+](Cc3ccc(SCCSc4ccc(C[n+]5ccc(N6CCCC6)c6ccc(Cl)cc65)cc4)cc3)c2c1` [PL48], for which the IC50 (in general, the concentration that gives 50% inhibition) turned out to be 0.658 ± 0.067 µM.
